Assay results published in PubChem BioAssay (NCI).
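Five concentrations, 48 hours, 96-well plates. GI50 marks 50% less growth. The concentration for full growth arrest is given as TGI.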

Tests used:
Assay in all cases: NCI tumour cell line growth inhibition, 48 h
[1] = test system: HCC-2998 colon
[2] = test system: SF-539 CNS
[3] = test system: SW-620 colon
[4] = test system: HOP-62 NSCLC
[5] = test system: UACC-62 melanoma
[6] = test system: SK-MEL-5 melanoma
[7] = test system: UACC-257 melanoma
[8] = test system: SK-MEL-28 melanoma
[9] = test system: HCT-116 colon
[10] = test system: SN12C renal
[11] = test system: SNB-75 CNS
[12] = test system: MDA-MB-231 breast
[13] = test system: MDA-MB-435
[14] = test system: ACHN renal
[15] = test system: HS 578T breast
[16] = test system: DU-145 prostate
[17] = test system: MDA-N
[18] = test system: PC-3 prostate

Row | Compound | TGI [1] [µM] | TGI [2] [µM] | TGI [3] [µM] | TGI [4] [µM] | TGI [5] [µM] | TGI [6] [µM] | TGI [7] [µM] | TGI [8] [µM] | TGI [9] [µM] | TGI [10] [µM] | TGI [11] [µM] | TGI [12] [µM] | TGI [13] [µM] | TGI [14] [µM] | TGI [15] [µM] | TGI [16] [µM] | TGI [17] [µM] | TGI [18] [µM] | GI50 [3] [µM] | GI50 [9] [µM]
1 | C=C1C(=O)OC2CC(C)C3C4OC4C(O)C3(C)C(O)C12 (configuration not stated) | 75.8 | 45.6 | 54.6 | 127 | 43.8 | 87.1 | 104 | 71.2 | 55.6 | 72 | 92.1 |  |  |  |  |  |  |  |  | 
2 | COc1ccc(-c2c(-c3ccccc3)c(C)nc3nc(SC)nc(SC)c23)cc1OC | > 100 | 23 | > 100 | 40.5 | 39.7 | 27.8 | > 100 | > 100 | 32.2 | > 100 | > 100 | > 100 | > 100 | > 100 | 82.3 | > 100 | > 100 | 41.7 |  | 
3 | CCCCOP(C)(=O)C(NC(=O)OCC)(C(F)(F)F)C(F)(F)F (configuration not stated) | > 100 | > 100 | > 100 | > 100 | > 100 | > 100 | > 100 | > 100 | > 100 | > 100 | > 100 | > 100 | > 100 | > 100 | > 100 | > 100 | > 100 | > 100 |  | 
4 | CC12CCC(CC1)C(C)(C)O2 | 97.7 | 90.1 | 89.7 | 52.2 | 69.6 | 21.8 | 73.7 | 131 | 81.3 | 71.7 | 115 |  |  |  |  |  |  |  | 9.09 | 12.6
5 | CC(C)c1ccccc1SCc1cc(=O)cc(CSc2ccccc2C(C)C)o1 | 84.5 |  | 81.2 | 43.6 | 36.2 | > 100 | 51 | 57.8 |  |  | 36.5 | 49.5 | 32.8 | > 100 | 32.9 | 55.4 | 44.9 | 30.7 |  | 
6 | Cc1cccc(N2C(=O)C3c4[nH]c5ccc(C)cc5c4C4CCC(C(C)(C)C)CC4C3C2=O)c1 (configuration not stated) |  |  | 59.6 | 30.9 | > 100 | > 100 | > 100 | > 100 |  |  |  | 38.4 | > 100 |  |  | 38.7 |  | 31.3 |  | 
7 | CSc1nc(N)c2c(-c3ccccc3)c3c(nc2n1)CCCC3 |  | > 100 | > 100 | > 100 | > 100 | > 100 | > 100 | > 100 | > 100 | > 100 | > 100 | > 100 | > 100 | > 100 | 48.5 | > 100 | > 100 | > 100 |  | 
